A melting point compilation (Tetko et al.; mined from patent text by program, amines drawn as free bases though some values may be those of a salt)

Row | Structure (SMILES) | melting point [°C]
1 | CCOC(=O)c1cn(CC(I)=C(I)I)c(Cl)c1Cl | 117 to 119
2 | CCOC(=O)[C@H]1O[C@@H]1C(=O)N[C@H](COCc1ccsc1)CC(C)C | 61 to 62.5
3 | COc1cccc(C2COc3c(C)c(C)c(NC(=O)CC(C)(C)C)c(C)c32)c1 (configuration not stated) | 169 to 170
4 | Cc1nnc(-c2ccc3ncc(-c4ccc(S(C)=O)cc4)n3c2)o1 (configuration not stated) | 190
5 | COc1ccc(SSc2ccc(OC)cc2C(N)=O)c(C(N)=O)c1 | 188 to 189
6 | C=CCc1c(O)ccc2oc(C(=O)OCC)cc12 | 94 to 95
7 | N#CC(Cc1ccccc1)C(=O)O (configuration not stated) | 97
8 | CCCCCCOc1ccc(-c2ncc(C#N)cn2)cc1 | 93.5 to 93.8
9 | COc1ccc(C2Sc3cccc4cccc(c34)NC(=O)C2O)cc1 (configuration not stated) | 218 to 219
10 | Ic1ccc(Cc2ccc(I)cc2)cc1 | 160 to 164
11 | CN1CCC(P(=O)(O)O)(P(=O)(O)O)N=C1N | 308
12 | C[C@@H]1NC(=O)OC1(c1ccccc1)c1ccccc1 | 264 to 266
13 | CN1CC2CC(=O)CC(C1)N2C | 72 to 73
14 | O=C(c1cccc(O)c1)c1sc2cc(O)ccc2c1-c1ccccc1 | 202
15 | O=[N+]([O-])c1ccccc1NC1CCN(Cc2ccccc2)CC1 | 93.4 to 94.6
16 | CC(C)n1nc(-c2sc(NC(=O)CN(C)CCc3ccccn3)nc2-c2ccccc2)ccc1=O | 94 to 96
17 | Cn1cc2c3c(c(F)cc2n1)CCC3=O | 190 to 192
18 | O=S1(=O)CCCc2[nH]c3ccccc3c2CC1 | 207 to 208
19 | O=C(c1ccc(Cl)cc1)P1(=O)Oc2ccccc2-c2ccccc21 (configuration not stated) | 125 to 131
20 | FC(F)(F)c1ccc(Nc2nnc(Cc3ccncc3)c3ccccc23)cc1 | 205 to 206
21 | O=C1Cc2ccccc2C1(Cc1ccncc1)Cc1ccncc1 | 95 to 96
22 | CC(=O)NC1CC(=O)CC(=O)C1 | 181 to 183
23 | CCc1nc2cc(S(C)(=O)=O)c(Cl)cc2n1-c1ccc(CCNC(=O)NS(=O)(=O)c2ccc(C)cc2)cc1 | 105 to 118

Row | Structure (SMILES) | melting point [°C]
24 | CNC(=S)C1(c2cccnc2)CCCS1=O (configuration not stated) | 204
25 | CC1(C)CCC(C)(C)c2cc3c(cc21)OCC3(C)c1cc(C=C(Br)Br)cs1 (configuration not stated) | 124
26 | CCOc1ccc(C=[N+]([O-])C2CCCC2)cc1 | 95.1
27 | Cc1cc(C(=O)c2cccc(Cc3ccccc3)c2)c(O)c2ncccc12 | 123 to 124
28 | CC(C)(CC(O)(Cn1cc(Cl)c(=O)c2sccc21)C(F)(F)F)c1cc(-c2cncnc2)cc2c1OCC2 (configuration not stated) | 218 to 219
29 | NC(=O)c1nnc2n1-c1ccc(Cl)cc1C(c1ccccc1)=NC2 | 285 to 289
30 | CN(C)c1ccc(C(c2ccc(N(C)C)cc2)c2ccc(N(C)C)cc2C(=O)O)cc1 | 210 to 212
31 | COc1cc(Cc2c(N)nc(N)nc2O)cc(OC)c1OC | 275 to 276
32 | CCC(CC)Oc1cc(C)nc(Nc2c(C)cc(C)cc2C)c1 | 98 to 100
33 | C1=Cc2ccccc2C=CN1 | 186 to 190
34 | CCc1c(C(=O)C(=O)NC2=CC(=O)OC2)c2ccccc2n1Cc1ccc(Cl)cc1 | 192 to 195
35 | Cc1nccc(N2CCC(C(=O)N3CCN(S(=O)(=O)c4ccc(Br)cc4)CC3)CC2)n1 | 200 to 202
36 | CC(C)(C)CNc1cc(F)cc(C(=O)Nc2ccc(OCCN3CCOCC3)c3ccccc23)c1 | 85 to 87
37 | COc1cc2cc(OCc3ccccc3)cnc2cc1OC | 146 to 148
38 | CCCCC1(CCCC)NC(c2nc(-c3ccncc3)c[nH]2)Cc2c1[nH]c1ccccc21 (configuration not stated) | 200 to 205
39 | CC[C@H]1c2ccc(C#N)n2-c2cc(F)c(F)cc2N1S(=O)(=O)c1ccc(O)c(C)c1 | 201 to 203
40 | Cc1c(NC(=O)c2ccc(OCC3CCCO3)cc2)ccc2cc(CNC3CCC(O)CC3)cnc12 (configuration not stated) | 155
41 | COc1cc(OC)nc(Cc2cccnc2NC(=O)OC(C)(C)C)n1 | 89 to 92
42 | COc1ccccc1OCC1SCCN1C(=O)CCl (configuration not stated) | 87 to 88
43 | N=C(Nc1ccccc1-c1ccccc1)N1CCOCC1 | 153 to 154
44 | Cc1c(C(=O)Nc2ccc(CN3CCC(N4CCOCC4)CC3)c(C#N)c2)cnn1-c1ccc(Cl)cc1 | 167 to 168
45 | OC(c1ccc(F)cc1)(c1ccc(F)cc1)c1nccn1Cc1ccccc1 | 176 to 177
46 | CC(C)C(C)(C)[Si](C)(C)Oc1ccc2c(c1)c(I)c1n2CCC1 | 97 to 98

Row | Structure (SMILES) | melting point [°C]
47 | CCOC(=O)Cc1c2n(c3ccc(F)cc13)C(c1ccc(SC)cc1)=NCC2 | 119 to 120
48 | CCOc1ccc(-c2nc(-c3ccc(N)c(C(=O)O)c3)cs2)cc1OCC | 228 to 229
49 | CC(Cc1c[nH]c2ccccc12)(NC(=O)OC1C2CC3CC(C2)CC1C3)C(=O)NCCc1nc[nH]n1 (configuration not stated) | 124 to 128
50 | CCN(CC)CCOc1ccc2cc3ccc(OCCN(CC)CC)c(Cl)c3nc2c1Cl | 83 to 84
51 | N[C@H]1CC[C@@H](Oc2ccc3[nH]ncc3c2)CC1 | 144 to 146
52 | NC(=O)C1=C(c2ccccc2)C(c2ccccc2)OC1=O (configuration not stated) | 125 to 127
53 | C/C(=C/CO)c1cc2c(cc1O)C(C)(C)CCC2(C)C | 144 to 145
54 | Cc1cc(Nc2ccccc2)nc(-n2nc(C)cc2C)n1 | 134 to 139
55 | NCc1nnc(-c2ncn3c2[C@@H]2CCN2C(=O)c2sccc2-3)o1 | 233 to 235
56 | Cc1cc(O)ccc1-c1ccc2cc(O)ccc2c1 | 191 to 193
57 | C/C=C/c1cc(OC)c2oc(-c3ccc(O)c(OC)c3)c(CO)c2c1 | 175 to 179
58 | CCCCCCCOc1ccc(-c2ncc(C#N)cn2)cc1 | 102
59 | CC1=CC(=O)CC2CCC3C4C(C#N)CC(=O)C4(C)CCC3C12C (configuration not stated) | 193
60 | NCC(=O)c1ncn(Cc2ccccc2)c1N | 156 to 162
61 | O=C(O)c1cn(C2CC2)c2c(F)c(N3CCC(CNCCF)C3)c(F)cc2c1=O (configuration not stated) | 134 to 138
62 | O=C1OCc2cccc(CBr)c21 | 128 to 131
63 | NC(C(=O)O)c1c(C(=O)O)csc1-c1ccccc1 (configuration not stated) | 266 to 271
64 | CCOC(=O)C(=CNc1ccc2nc(C)n(C)c2n1)C(=O)OCC | 128 to 130
65 | CC(C)c1cccc(C(C)C)c1NC(=O)NCC1(O)CCCc2ccccc21 (configuration not stated) | 170 to 171
66 | Cc1cccc2c1ccc1c3occ(C)c3c(=O)oc21 | 173 to 175
67 | O=C(CCN1CCN(c2ccccc2)CC1)NCC(=O)c1ccccc1 | 126
68 | O=C(OC(=O)c1cn(-c2ccccc2)nc1-c1ccc([N+](=O)[O-])o1)c1cn(-c2ccccc2)nc1-c1ccc([N+](=O)[O-])o1 | 262 to 264
69 | CCSc1nc(-c2ccccc2)c(-c2ccccc2)s1 | 73 to 74

Now from value to compound:

Row | melting point [°C] | Structure (SMILES)
70 | 105 to 107 | CC(C)c1nn(Cc2ccc(Cl)cc2Cl)cc1CCCOc1cc(CCC(=O)O)n(-c2ccccc2)n1
71 | 67 to 70 | O=[N+]([O-])c1ccc(Oc2ccc(Cl)cc2)cc1
72 | 228 | CCOC(=O)c1cnn(-c2c(Cl)cc(Cl)cc2Cl)c1O
73 | 101 to 103 | CCOc1nc(C(F)(F)F)cc(=O)n1-c1cc(OC(C)C)c(Cl)cc1F
74 | 156 to 157 | O=[N+]([O-])c1cccc2c1ccn2S(=O)(=O)c1cccc2ccccc12
75 | 188 to 191 | NC(=O)C(=C1CSc2ccccc2N1)c1ccc(Cl)cc1
76 | 167 to 169 | Cc1cc(Nc2ccc(Cl)cc2)nc(-n2ncc3ccccc32)n1
77 | 168 | Cc1nnc(-c2ccc(Cl)c([N+](=O)[O-])c2)[nH]1
78 | 111 to 113 | CN1C(=O)C=C(c2cccc(Cl)c2)C1=O
79 | 210 to 211 | Nc1c2c(=O)c3ccccc3c(=O)c2c(N)c2c(=O)n(CCCCCCO)c(=O)c12
80 | 194 to 196 | O=C1Cc2cc(NC(=O)C(=O)N3CCC(Oc4ccc(Cl)cc4)CC3)ccc2N1
81 | 115 to 116 | COC(=O)Cc1ccccc1Oc1cccc(O)c1
82 | 190 | O=C1c2ccc(OCCCO)cc2C(=O)c2ccc(OCCCO)cc21
83 | 208 to 212 | O=C(O)C1=Cc2cc(S(=O)(=O)Cl)ccc2OC1C(F)(F)F (configuration not stated)
84 | 58 to 61 | CC1=C(CCC(C)CCC(=O)O)C(=O)c2ccccc2C1=O (configuration not stated)
85 | 137 | CCOC(=O)Cn1c(=O)n(Cc2ccc(Cl)cc2)c(=O)c2ccccc21
86 | 212 to 214 | CC1=NN(c2ccccc2O)C(=O)C1

Row | melting point [°C] | Structure (SMILES)
87 | 253 to 256 | O=C(O)C(=O)Nc1ccc2c(=O)c3c(oc2c1)C(=Cc1ccccc1)CC3
88 | 162 to 164 | O=c1nc(-c2cccc(S(=O)(=O)CCc3ccccc3)n2)sc2ccccc12
89 | 145 to 146 | CCC(=O)C(O)(Cc1ccc(Cl)cc1Cl)c1cccnc1 (configuration not stated)
90 | 207 to 209 | ON=C1CCC(C2CCCC2)=C1c1cccc(O)c1
91 | 153 | O=c1n(-c2cccc(Cl)c2)c(=O)n(SC(Cl)(Cl)Cl)n1SC(Cl)(Cl)Cl
92 | 110 to 112 | Nc1cccc(CC(=O)NCc2ccccc2Br)c1
93 | 67 to 69 | O=C1CC(c2c(-c3ccc[nH]3)[nH]c3ccccc23)C(=O)N1 (configuration not stated)
94 | 175 to 178 | CCOC(=O)c1cn(-c2cnsn2)c2nc(Cl)c(F)cc2c1=O
95 | 61 to 62 | CSc1cccc2c1Oc1ccccc1N2[Si](C)(C)C(C)(C)C
96 | 84 to 85 | CCOC(=O)C1(C(=O)OCC)C(C(C)=O)C(=O)N1Cc1ccc(OC)cc1OC (configuration not stated)
97 | 314 to 316 | O=C(O)c1ccc(-c2ccncc2)cc1[N+](=O)[O-]
98 | 223 | CS(=O)(=O)c1c(N2CCN(C(=O)c3cccs3)CC2)c2cccnc2n(Cc2ccccc2)c1=O
99 | 73 | O=C(Cc1ccccc1Nc1c(Cl)cccc1Cl)OCCOCCO[N+](=O)[O-]
100 | 70 to 72 | CCOC(=O)C(C)Oc1ncn(-c2cccc(Cl)c2)n1 (configuration not stated)
101 | 234 to 237 | CCC(C(CC(=O)OC)c1ccc(Cl)cc1Cl)[N+](=O)[O-] (configuration not stated)
102 | 99 to 102 | CCOc1cccc(N2C(=O)C(=CN(C)C)c3ccccc32)c1
